Here are results for nine compounds from ChEMBL document CHEMBL2157907, “Optimization of anti-Trypanosoma cruzi oxadiazoles leads to identification of compounds with efficacy in infected mice” (Bioorg Med Chem, 2012).

The subject of data set [1] is Trypanosoma cruzi. In words: Induction of kinetoplast enlargement in trypomastigotes of Trypanosoma cruzi Y at 9.5 uM after 24 hrs by […] electron microscopic analysis. Format: functional, organism-based.
In data set [2] the test system is Trypanosoma cruzi. In words: Antitrypanosomal activity against trypomastigotes of Trypanosoma cruzi Y infected in BALB/c mouse assessed as reduction of parasite level in blood at 50 mg/kg, po administered after 5 days of postinfection qd for 5 days. Format: functional, organism-based. Details: dose 50 mg/kg.
Data set [3] deals with Trypanosoma cruzi. In words: Induction of golgi apparatus degeneration in trypomastigotes of Trypanosoma cruzi Y at 9.5 uM after 24 hrs by […] electron microscopic analysis. The format is functional, organism-based.
Data set [4] concerns Trypanosoma cruzi. In words: Antitrypanosomal activity against trypomastigotes of Trypanosoma cruzi Y in BALB/c mouse peritoneal exudate macrophages assessed as reduction of parasite infection to cells at 10 ug/ml treated simultaneously with parasite measured after 2 hrs. Format: functional, organism-based.
For data set [5], the system named is Trypanosoma cruzi. In words: Induction of ultrastructural changes in trypomastigotes of Trypanosoma cruzi Y assessed as plasma membrane protrusions at 30 uM after 24 hrs by scanning electron microscopic analysis. Format: functional.
Data set [6] deals with Trypanosoma cruzi. In words: Antitrypanosomal activity against trypomastigotes of Trypanosoma cruzi Y infected in BALB/c mouse peritoneal exudate macrophages assessed as reduction of parasite level at 10 ug/ml after 4 days. The format is functional, organism-based.
Data set [7] has as its system Trypanosoma cruzi. In words: Antitrypanosomal activity against trypomastigotes of Trypanosoma cruzi Y infected in rhesus monkey LLC-MK2 cells assessed parasite viability after 24 hrs. The format is functional, organism-based. As to conditions: LLC-MK2, 24 h.
Data set [8] concerns Trypanosoma cruzi. In words: Induction of mitochondria degeneration in trypomastigotes of Trypanosoma cruzi Y at 9.5 uM after 24 hrs by […] electron microscopic analysis. The format is functional, organism-based.
The target of data set [9] is Cruzipain (Trypanosoma cruzi) (UniProt P25779). In words: Inhibition of Trypanosoma cruzi cruzain using Z-Phe-Arg-aminomethylcoumarin as substrate at 100 uM after 10 mins.
Sequence of Cruzipain (Trypanosoma cruzi) (P25779 123-467 limits assumed): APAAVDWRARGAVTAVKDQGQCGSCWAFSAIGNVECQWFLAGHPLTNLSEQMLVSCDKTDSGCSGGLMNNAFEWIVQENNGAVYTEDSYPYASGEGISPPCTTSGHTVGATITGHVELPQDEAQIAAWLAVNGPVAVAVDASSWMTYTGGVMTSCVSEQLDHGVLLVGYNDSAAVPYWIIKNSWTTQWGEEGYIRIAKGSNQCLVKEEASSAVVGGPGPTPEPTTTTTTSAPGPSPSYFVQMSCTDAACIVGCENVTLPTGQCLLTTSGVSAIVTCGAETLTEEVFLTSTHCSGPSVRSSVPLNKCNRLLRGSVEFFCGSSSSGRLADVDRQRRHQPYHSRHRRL
The nature of data set [10]: Cytotoxicity against BALB/c mouse splenocytes after 24 hrs by [3H]-thymidine incorporation assay. Format: cell-based, Splenocyte. The settings on record: read-out: LC50. (In general: Uptake of a labelled nucleoside into DNA is a usual measure of proliferation.)
Data set [11] concerns Trypanosoma cruzi. In words: Induction of endoplasmic reticulum degeneration in trypomastigotes of Trypanosoma cruzi Y at 9.5 uM after 24 hrs by […] electron microscopic analysis. The format is functional, organism-based.
Data set [12] concerns Trypanosoma cruzi. In words: Antitrypanosomal activity against epimastigotes of Trypanosoma cruzi Y after 5 days. The format is functional, organism-based. As to conditions: 120 h.
A further data set concerns the target Cruzipain (Trypanosoma cruzi, UniProt P25779). In words: Inhibition of Trypanosoma cruzi cruzain using Z-Phe-Arg-aminomethylcoumarin as substrate after 10 mins.

The source made the active and inactive calls. The calls are words filed in the database; no cut-off is given here.

Sequence of Cruzipain (P25779 whole entry): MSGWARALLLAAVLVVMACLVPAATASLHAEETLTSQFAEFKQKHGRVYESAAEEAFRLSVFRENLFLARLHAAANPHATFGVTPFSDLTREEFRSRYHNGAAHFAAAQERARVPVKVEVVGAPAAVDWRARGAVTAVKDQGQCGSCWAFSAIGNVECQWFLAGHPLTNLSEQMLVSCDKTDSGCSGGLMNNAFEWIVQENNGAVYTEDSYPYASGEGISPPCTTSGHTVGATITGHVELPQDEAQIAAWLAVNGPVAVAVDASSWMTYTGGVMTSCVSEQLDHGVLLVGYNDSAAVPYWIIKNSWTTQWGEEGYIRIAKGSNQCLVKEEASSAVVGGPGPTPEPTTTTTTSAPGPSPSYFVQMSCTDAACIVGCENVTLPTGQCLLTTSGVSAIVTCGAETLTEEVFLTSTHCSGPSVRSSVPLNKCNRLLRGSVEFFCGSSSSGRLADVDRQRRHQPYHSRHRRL

In general, IC50 refers to the midpoint of a concentration-inhibition curve. Usually inhibition stands for the relative decrease from the control value, in per cent. In the case of `O=C(N/N=C/c1ccc2c(c1)OCO2)c1nc(-c2ccc(F)cc2)no1`, the result with Trypanosoma cruzi [1], in the data set on Trypanosoma cruzi [3], in the data set on Trypanosoma cruzi [4], with Trypanosoma cruzi [6], with Trypanosoma cruzi [8] and with Trypanosoma cruzi [11] was Active. Also, in the data set with Trypanosoma cruzi [2], the outcome was inactive. Further, in the data set with Trypanosoma cruzi [5], the Activity was determined as 80%. The IC50 worked out at 9.5 µM in the data set with Trypanosoma cruzi [7] and 12.2 µM in the data set with Trypanosoma cruzi [12]. In [9], this compound returned an inhibition of 34%. Also, in [10], the CC50 at 24 h is greater than 100 µg/mL.

As for `COc1cc(/C=N/NC(=O)c2nc(-c3ccc(O)cc3)no2)ccc1O`, the inhibition in data set [9] is 25%. The CC50 at 24 h in data set [10] is greater than 100 µg/mL.

Compound `COc1ccc(-c2noc(C(=O)N/N=C/c3ccc4c(c3)OCO4)n2)cc1` gave an inhibition in [9] of 44%. Moreover, in [10], the CC50 at 24 h is greater than 100 µg/mL.

In turn, `Cc1ccc(-c2noc(C(=O)N/N=C/c3ccc4c(c3)OCO4)n2)cc1` came in with an inhibition in data set [9] of 49%. The CC50 at 24 h in data set [10] is greater than 100 µg/mL.

In turn, `COc1cc(/C=N/NC(=O)c2nc(-c3ccc(F)cc3)no2)ccc1O` returned an inhibition in [9] of 63%. The CC50 at 24 h in data set [10] is greater than 100 µg/mL.

`O=C(N/N=C/c1ccc2c(c1)OCO2)c1nc(-c2ccccc2)no1` gave an inhibition in [9] of 32%. The CC50 at 24 h in [10] was greater than 100 µg/mL.

Consider `O=C(N/N=C/c1ccc2c(c1)OCO2)c1nc(-c2ccc([N+](=O)[O-])cc2)no1`, for which, in [10], the CC50 at 24 h was greater than 100 µg/mL.

`CN(C)c1ccc(C(=C2C=CC(=[N+](C)C)C=C2)c2ccc(N(C)C)cc2)cc1` [GENTIAN VIOLET]: the CC50 at 24 h in data set [10] came to 0.11 µg/mL.

In [9], `COc1cc(/C=N/NC(=O)c2nc(-c3ccc(Cl)cc3)no2)ccc1O` came in with an inhibition of 92%. In addition, in data set [10], the CC50 at 24 h is greater than 100 µg/mL. This compound also gave a 50% inhibitory concentration (IC50) at Cruzipain of 0.04 µM.
